Assay results taken from patent US8957056B2, “Migrastatin analogs in the treatment of cancer” (Sloan-Kettering Instiute for Cancer Research, priority 2004, dated 2015).
Where two headings read alike, the source gives them in different places.

Legend:
[1] = test system: HUVEC; assay: Tube formation assay; assay type: cell-based, human; settings: HUVEC on matrigel, 16-18 h, tested concentrations 200, 100, 50, 25, 10 μM
Experimental: A protocol was designed based on the instructions from the provider (BD Bioscience, San Jose, Calif.). Briefly, wells of a 48 well culture dish were covert with 150 μL matrigel and the matrigel was gelatinized for 30 min at 37° C. A 80-90% confluent HUVEC (BD Bioscience, San Jose, Calif.) culture was trypsin treated, the detached cells were collected by centrifugation and resuspended in EGM-2 media (BD Bioscience, San Jose, Calif.). Cell concentration was adjusted to 100.000 cells/mL. 400 μL of the cell suspension were filled in the matrigel coated wells, and a solution of the inhibitor was added to the intended final concentration. The plates were incubated at 37° C. with 5% CO2 for 16-18 h. Media was removed, and the matrigel surface was washed twice with 500 μL PBS before cells were labeled with 250 μL 8 μM Calcein AM (Pierce, Rockford, Ill.) in PBS for 30 min at 37° C. After two additional washing steps (500 μL PBS) cells were visualized under an inverted microscope. Fluorescence was excited at 488 nm and recorded at 538 nm. The minimum effect concentration was defined as the minimal inhibitor concentration that caused a definite disturbance of the complexity of the formed tube network.

[2] = test system: six solid human tumor cell lines and four liquid cancer cell lines; assay: Chamber cell migration, various human cancer cells (overall statements); assay type: cell-based; settings: migration inhibition
Experimental: Additional evaluation was conducted in a variety of human cancer cells and xenographs (See FIGS. 4-19). […] Unexpectedly, a very high selectivity between the various tumor cell lines was detected (Table 4 and FIG. 2). […] As stated above, non-transformed human cells such as HUVEC appear to be largely more resistant to the compounds. […] This was an unforeseen discovery, especially in light of the response observed for these compounds to the 4T1 mouse breast cancer cell line (previously reported in WO 2004/087672).
Cell migrations were assayed with 8 μm of microporous 6.5-mm transwell plates (Corning). 200 μl of 2×10^5 cells in serum-free RPMI1640 medium containing 0.5% BSA were added to the upper chamber and 600 μl of medium with 10% fetal bovine serum was added to the lower chamber. […] Cells migrated to the lower wells were collected and counted for liquid tumors, solid tumors were processed as previously described.^28 Data shown are representative of at least three experiments.

[3] = test system: adherent cells (e.g. KYSE-520 cells); assay: Wound healing (scratch) assay, preliminary (Table 2); assay type: cell-based; settings: 28 to 30 h, tested concentrations 200, 100, 50, 25, 10 μM
Experimental: The wound healing assay was performed based on the method described by Nakae et al. (Nakae et al., J. Antibiotics (2000), 53, 1130-1136). Briefly, adherent cells were grown in a suitable media to confluence (e.g. KYSE-520 cells in RPMI-1640 with 10% FBS). Cells were starved for 24 h in serum free media A scratch (ca. 0.5 mm) was applied and the cell layer was washed twice with PBS after removal of the media. Fresh, serum free media with the test compound at the desired concentration was added and the cells were incubated for 28 to 30 h at 37° C., 5% CO2. The scratch size was compared to that observed for cells exposed to 100 μM Migrastatin. Test compounds associated with a scratch size equal to or larger than that observed for cells exposed to 100 μM Migrastatin were deemed to have cell migration inhibitory activity at least equal to Migrastatin.

[4] = Mouse blood plasma stability; settings: test period one hour
Experimental: The biological evaluation of the compounds (in terms of their ability to inhibit cell migration) was accomplished in a Boyden chamber cell migration assay. In this assay, mouse breast tumor cells (4T1 cells) or endothelial cells (HUVECs) are seeded on the upper chamber of a transwell insert. Growth factor-containing serum is added to the lower chamber.
In anticipation of subsequent in vivo evaluation of these compounds and others, preliminary metabolic stability studies were carried out. […] As a test of the ‘deactivation hypothesis’, the hydrolysis product of macrolactone 48 was prepared (Scheme 27) and tested for its activity against tumor cell migration.

[5] = test system: mouse 4T1 cell; settings: mouse 4T1 cell proliferation; previously reported (WO 2004/087672); cited from earlier work
[6] = reported by Imoto / Kosan; read-out: IC50 value, reported activity in a wound healing assay; cited from earlier work
[7] = test system: mouse breast tumor cells (4T1 cells); assay: Boyden chamber cell migration assay, 4T1; assay type: cell-based; settings: Mus musculus, 4T1, read-out: IC50 value, chamber cell migration assay
[8] = Chamber cell migration assay, preliminary (Table 3); assay type: cell-based; settings: 36 h, tested concentrations 200, 100, 50, 25, 10 μM
Experimental: Cells were grown in an appropriate media to 70 to 80% confluence and incubated in serum and growth factor free media for 24 h. Cells were detached by trypsin treatment, collected by centrifugation and resuspended in serum free media to a final concentration of 150,000 cells/mL. 400 μL of the cell suspension were loaded into a fibronectin coated insert for 24 well multidishes. 750 μL fully supplemented media were applied to the compartment under the insert. To both chambers the inhibitor was added at the intended concentration and the plates were incubated for 36 h at 37° C., 5% CO2. […] The resulting CyQuant assay solution was transferred to the cavities of a 96 well microtiter plate and the fluorescence signal was recorded in an appropriate reader. The CyQuant dye forms a highly fluorescent complex with DNA, thus the fluorescence signal is proportional to the number of cells that migrated through the membrane in the presence of the test compound (N^inh) A positive control (i.e., without a test compound in the growth media) was carried out according to the procedure described above, except that no test compound was added. The positive control fluorescent reading correlates with the number of cells that migrate through the membrane in the absence of inhibitor (N^+). […] The anti-migratory effect of a test compound is determined by the ratio (N^inh−N^−)/(N^+−N^−).

CO[C@H]1/C=C/CC/C=C/C(=O)OC([C@H](C)C(=O)CCCC2CC(=O)NC(=O)C2)/C(C)=C\[C@@H](C)[C@@H]1O (some centres unmarked) [Migrastatin (1), Migrastatin]
Minimum effect concentration [1]: 100 µM
response of the human tumor cell lines tested [2]: did not respond well to any of the cell lines tested
Minimum effect concentration [3]: 100 µM
metabolic stability in mouse blood plasma [4]: completely inert toward lactone opening
IC50 [5]: 42 µM
IC50 [6]: 29 µM
IC50 [7]: 29 µM
IC50 [8]: 200 µM
